For experiment [1], the target named is T1, Peroxisome proliferator-activated receptor delta (Homo sapiens, UniProt Q03181).
T1 sequence (Q03181 whole entry): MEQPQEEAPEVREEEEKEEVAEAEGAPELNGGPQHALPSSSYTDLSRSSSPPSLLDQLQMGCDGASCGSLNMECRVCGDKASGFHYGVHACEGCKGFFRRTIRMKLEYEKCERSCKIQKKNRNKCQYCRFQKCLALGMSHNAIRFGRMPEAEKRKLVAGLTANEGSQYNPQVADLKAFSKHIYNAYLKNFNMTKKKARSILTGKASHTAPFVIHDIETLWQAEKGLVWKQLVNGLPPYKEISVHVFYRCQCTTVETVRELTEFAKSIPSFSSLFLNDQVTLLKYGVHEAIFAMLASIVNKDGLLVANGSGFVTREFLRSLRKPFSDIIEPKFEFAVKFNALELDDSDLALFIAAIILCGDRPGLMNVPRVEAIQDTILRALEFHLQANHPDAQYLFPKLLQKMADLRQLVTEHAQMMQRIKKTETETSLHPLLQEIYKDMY
Briefly: Agonist activity at human PPARdelta receptor by cell based transactivation assay.

The target of experiment [2] is T2, Peroxisome proliferator-activated receptor gamma (Homo sapiens, UniProt P37231).
T2 sequence (P37231 whole entry): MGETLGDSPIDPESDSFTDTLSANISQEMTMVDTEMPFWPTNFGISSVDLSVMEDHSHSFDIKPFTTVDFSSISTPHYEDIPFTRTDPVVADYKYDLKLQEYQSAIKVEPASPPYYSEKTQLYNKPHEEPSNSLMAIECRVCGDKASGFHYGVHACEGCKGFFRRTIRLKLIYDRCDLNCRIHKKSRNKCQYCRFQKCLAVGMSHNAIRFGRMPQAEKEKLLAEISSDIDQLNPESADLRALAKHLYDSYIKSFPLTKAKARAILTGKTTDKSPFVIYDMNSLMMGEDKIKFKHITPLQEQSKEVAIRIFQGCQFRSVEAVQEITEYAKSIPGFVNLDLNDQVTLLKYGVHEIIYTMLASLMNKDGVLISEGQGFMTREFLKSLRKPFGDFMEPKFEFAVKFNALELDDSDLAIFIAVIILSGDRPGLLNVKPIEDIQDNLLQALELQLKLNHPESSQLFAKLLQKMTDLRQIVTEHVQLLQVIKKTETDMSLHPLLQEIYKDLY
Description: Agonist activity at human PPARgamma receptor by cell based transactivation assay

Experiment [3] addresses T3, Peroxisome proliferator-activated receptor alpha (Homo sapiens, UniProt Q07869).
T3 sequence (Q07869 whole entry): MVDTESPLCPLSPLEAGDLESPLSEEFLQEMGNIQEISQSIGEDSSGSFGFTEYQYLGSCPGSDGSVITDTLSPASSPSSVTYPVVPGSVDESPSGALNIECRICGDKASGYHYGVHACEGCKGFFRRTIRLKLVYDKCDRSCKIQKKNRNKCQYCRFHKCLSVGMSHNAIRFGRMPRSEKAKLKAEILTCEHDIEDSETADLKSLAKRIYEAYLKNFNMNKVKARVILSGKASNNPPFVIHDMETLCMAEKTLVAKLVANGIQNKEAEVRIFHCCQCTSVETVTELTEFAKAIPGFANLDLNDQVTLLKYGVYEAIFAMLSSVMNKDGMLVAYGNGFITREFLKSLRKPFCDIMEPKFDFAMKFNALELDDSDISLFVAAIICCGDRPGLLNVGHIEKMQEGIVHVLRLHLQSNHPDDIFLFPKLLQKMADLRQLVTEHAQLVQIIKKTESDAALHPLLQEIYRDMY
The experiment can be described thus: Agonist activity at human PPARalpha receptor by cell based transactivation assay. It counts as functional.

For experiment [4], the species on record is Homo sapiens. The experiment can be described thus: Selectivity of EC50 for human PPARalpha receptor over EC50 for human PPARgamma receptor.
The species named for experiment [5] is Homo sapiens. The experiment can be described thus: Selectivity of EC50 for human PPARalpha receptor over EC50 for human PPARdelta receptor.
The species named for experiment [6] is Homo sapiens. Briefly: Selectivity of EC50 for human PPARgamma receptor over EC50 for human PPARalpha receptor.

Structures are written as SMILES.

A word on the EC50: it is the concentration that produces a half-maximal response. `CCCc1c(OCCCn2ccc3cc(OC(C)(C)C(=O)O)ccc32)ccc2cc(C(=O)c3ccccc3)ccc12` yielded an EC50 in experiment [1] of over 10000 nM.
As for `CCCc1c(OCCCn2ccc3cc(OC(C)(C)C(=O)O)ccc32)ccc2cc(Cc3ccccc3)ccc12`, the EC50 in experiment [2], in experiment [1] and in experiment [3] was over 10000 nM in each case.
For the molecule `CCCc1c(OCCCn2ccc3cc(OC(C)(C)C(=O)O)ccc32)ccc2cc(C(=O)c3ccc(OC)cc3)ccc12`, the EC50 in experiment [2] was 510 nM; in experiment [1], over 10000 nM; in experiment [3] it was 130 nM.
For `CCCc1cc(C(=O)c2ccc(-c3ccccc3)cc2)ccc1OCCCN1CCCc2cc(OC(C)(C)C(=O)O)ccc21` the same measures were 100 nM, over 10000 nM and over 10000 nM.
For the molecule `CCCc1cc(C(=O)c2ccc3ccccc3c2)ccc1OCCCn1ccc2cc(OC(C)(C)C(=O)O)ccc21`, the EC50 was 370 nM in experiment [2], over 10000 nM in experiment [1] and 30 nM in experiment [3].
For `CCCc1cc(C(=O)c2ccc3ccccc3c2)ccc1OCCCn1ccc2c(OC(C)(C)C(=O)O)cccc21`, the fold change (FC) in experiment [4] and in experiment [5] was over 100 each time. Further, the EC50 in experiment [2] was 2800 nM; in experiment [1], over 10000 nM; in experiment [3] it was 30 nM.
Turning to `CCCc1cc(C(=O)c2ccc(OC)cc2)ccc1OCCCn1ccc2cc(OC(C)(C)C(=O)O)ccc21`, the EC50 in experiment [2] came out at 470 nM; in experiment [1], 4450 nM; in experiment [3], 50 nM.
As to `CN(CCOc1ccc(CC2SC(=O)NC2=O)cc1)c1ccccn1` (stereo not given), the Activity in experiment [6] stood at 80.
Turning to `CCCc1c(OCCCn2ccc3cc(OC(C)(C)C(=O)O)ccc32)ccc2c(C(=O)c3ccccc3)cccc12`, the values for the EC50 in experiment [2], in experiment [1] and in experiment [3] were 3500 nM, over 10000 nM and 200 nM, respectively.
The corresponding values for `CCCc1c(OCCCn2ccc3cc(OC(C)(C)C(=O)O)ccc32)ccc2cc(C(C)=O)ccc12` are 1070 nM, over 10000 nM and over 10000 nM.
In the case of `CCCc1cc(C(=O)c2ccc(F)cc2)ccc1OCCCn1ccc2cc(OC(C)(C)C(=O)O)ccc21`, the EC50 in experiment [2] was 900 nM; in experiment [1] it was over 10000 nM; in experiment [3], 130 nM.
Regarding `CCCc1c(OCCCN2CCCc3c(OC(C)(C)C(=O)O)cccc32)ccc2cc(C(=O)c3ccccc3)ccc12`, the EC50 was 100 nM in experiment [2], over 10000 nM in experiment [1] and 120 nM in experiment [3].
For `CCCc1c(OCCCn2ccc3cc(OC(C)(C)C(=O)O)ccc32)ccc2cc(C(=O)c3ccoc3)ccc12` the same measures were 430 nM, over 10000 nM and 130 nM.
As for `CCCc1cc(C(=O)c2ccccc2)ccc1OCCCn1ccc2c(OC(C)(C)C(=O)O)cccc21`, the figures for the EC50 in experiment [2], in experiment [1] and in experiment [3] were over 10000 nM, over 10000 nM and 30 nM, respectively.
For the molecule `CCCc1c(OCCCn2ccc3cc(OC(C)(C)C(=O)O)ccc32)ccc2cc(C(=O)c3ccncc3)ccc12`, the values for the EC50 in experiment [2], in experiment [1] and in experiment [3] were 2070 nM, over 10000 nM and over 10000 nM, respectively.
Turning to `CCCc1cc(C(=O)c2ccc(-c3ccccc3)cc2)ccc1OCCCn1ccc2c(OC(C)(C)C(=O)O)cccc21`, the fold change (FC) in experiment [4] is over 300; in experiment [5], over 300; in experiment [6], 15. Also, the 50% effective concentration (EC50) in experiment [2] is 300 nM; in experiment [1], over 10000 nM; in experiment [3], 4070 nM.
Take `CCCc1c(OCCCN2CCCc3cc(OC(C)(C)C(=O)O)ccc32)ccc2cc(C(=O)c3ccccc3)ccc12`: the EC50 in experiment [2] is 540 nM; in experiment [1], over 10000 nM; in experiment [3], 240 nM.
For `CCCc1cc(C(=O)c2ccccc2)ccc1OCCCn1ccc2cc(OC(C)(C)C(=O)O)ccc21` the same measures were 420 nM, 5270 nM and 40 nM.
As for `CCCc1c(OCCCn2ccc3cc(OC(C)(C)C(=O)O)ccc32)ccc2cc(C(=O)c3ccc(F)cc3)ccc12`, the concentration for a half-maximal effect (EC50) was 2120 nM in experiment [2], over 10000 nM in experiment [1] and over 10000 nM in experiment [3].
With `CCCc1cc(C(=O)c2ccc(-c3ccccc3)cc2)ccc1OCCCn1ccc2cc(OC(C)(C)C(=O)O)ccc21`, the EC50 in experiment [2] is 120 nM; in experiment [1], over 10000 nM; in experiment [3], 1920 nM. In experiment [6], this molecule had a fold change (FC) of 15.
For the molecule `CCCc1cc(C(=O)c2ccc(-c3ccccc3)cc2)ccc1OCCCN1CCCc2c(OC(C)(C)C(=O)O)cccc21`, the EC50 in experiment [2] is 50 nM; in experiment [1] it was over 10000 nM; in experiment [3], 3990 nM.

(Values after ChEMBL document CHEMBL1153404, “Design and structural analysis of novel pharmacophores for potent and selective peroxisome proliferator-activated receptor gamma agonists” (J Med Chem, 2009).)
